Article PMC12363935, “Unc-51 Like Kinase 3 (ULK3) is essential for autophagy and cell survival in multiple myeloma” (Research Square, 2025)
“And” between values parts separate entries of the source, which are not always exact repeats. Identical values can stand only once.

Tested on: primary CD138+ MM cells
Experiment: EMMA ex vivo platform, live cell imaging, 96 hours, collagen matrix with bone marrow stroma and patient plasma
Assay type: cell-based
Design: scale not given here
Excerpt: For clinical robustness, we tested the activity of MA9 in MM patient samples using our ex vivo mathematical myeloma advisor (EMMA) platform (Supplementary Table 1). […]
For these assays, we used a novel EMMA platform developed at Moffitt. Further details are included in the supplemental Materials. […]
400 Ex vivo drug sensitivity characterization
401 An ex vivo assay was used to quantify the chemosensitivity of primary MM cells. Fresh BM
402 aspirate cells were enriched for CD138+ expression using Miltenyi (Bergisch Gladbach, Germany)
MM cells (CD138+) were seeded in Corning
404 Cell BIND 384 well plates (Corning, NY) with collagen I and previously established human-
407 inactivated), penicillin/streptomycin, and patient-derived plasma (10%, freshly obtained from
409 added using a robotic plate handler so that every drug/combination was tested at 5 (fixed
410 concentration ratio, for combinations) concentrations (1:3 serial dilution) in two replicates.
411 Negative controls (supplemented growth media with and without the vehicle control dimethyl
412 sulfoxide [DMSO]) were included, as well as positive controls for each drug (cell line MM1.S at
413 highest drug concentration). Plates were placed in a motorized stage microscope (EVOS Auto FL,
414 Life Technologies, Carlsbad, CA) equipped with an incubator and maintained at 5% CO2 and 37
415 °C. […]
Digital image analysis computes the percent
418 viability of MM cells for each time point and experimental condition (drug and concentration)

SMILES: CC(C)C[C@H](NC(=O)[C@H](CCc1ccccc1)NC(=O)CN1CCOCC1)C(=O)N[C@@H](Cc1ccccc1)C(=O)N[C@@H](CC(C)C)C(=O)[C@@]1(C)CO1 [CFZ, carfilzomib]
- AUC (Pt620, NDMM): 36.78
- AUC (Pt622, LRRMM): 32.89
- AUC (Pt625, NDMM): 36.25
- AUC (Pt636, ERRMM): 53.52
- AUC (Pt638, NDMM): 44.52
- AUC (Pt639, NDMM): 52.97
- AUC (Pt648, LRMM): 48.435
- AUC (Pt652, LRMM): 67.924
- AUC (Pt653, LRMM): 60.160
- AUC (Pt655, LRMM): 37.063 and 37.06
- AUC (Pt663, LRMM): 48.477 and 48.48
- AUC (Pt665, LRMM): 52.826 and 52.83
- AUC (Pt666, LRMM): 40.984 and 40.98
- AUC (Pt669, ERMM): 48.58
- AUC (Pt672, NDMM): 56.496 and 56.5
- AUC (Pt677, NDMM): 38.487 and 37.936
- AUC (Pt680, ERMM): 43.762 and 43.248 and 43.76
- AUC (Pt685, ERMM): 44.316 and 44.32
- AUC (Pt689, NDMM): 43.578
- AUC (Pt691, LRMM): 40.781 and 40.78
- AUC (Pt693, SMOL): 97.333 and 97.33
- AUC (Pt694, NDMM): 49.029 and 49.03
- AUC (Pt695, LRMM): 54.535 and 54.53
- AUC (Pt697, NDMM): 45.229 and 45.23
- AUC (Pt700, NDMM): 48.455 and 54.337 and 54.34
- AUC (Pt707, LRMM): 60.754 and 60.75
- AUC (Pt718, SMOL): 58.31
- AUC (Pt737, MGUS): 45.483
- AUC (Pt738, NDMM): 52.453 and 52.45
- AUC (Pt740, SMOL): 45.352
- AUC (Pt745, NDMM): 68.911
- AUC (Pt765, LRRMM): 59.77
- AUC (Pt773, LRRMM): 32.99
- AUC (Pt808, LRRMM): 47.11
- AUC (Pt814, LRRMM): 62.23
- AUC (Pt821, NDMM): 54.79
- AUC (Pt822, ERRMM): 62.96
- AUC (Pt825, NDMM): 59.86
- AUC (Pt830, ERRMM): 61.41
- AUC (Pt849, LRRMM): 99.06
- AUC (Pt852, NDMM): 28.629
- AUC (Pt853, ERMM): 62.247 and 58.956
- AUC (Pt856, NDMM): 48.272 and 48.27
- AUC (Pt865, LRMM): 60.759 and 60.76
- AUC (Pt866, NDMM): 75.161 and 75.16
- AUC (Pt875, NDMM): 41.904 and 41.9
- AUC (Pt885, NDMM): 51.382 and 45.860 and 51.38
- AUC (Pt888, LRMM): 51.003 and 51
- AUC (Pt893, LRMM): 92.226
- AUC (Pt899, SMOL): 53.140
- AUC (Pt906, NDMM): 58.079 and 58.08
- AUC (Pt909, LRMM): 32.841
- AUC (Pt912, PCL): 23.632
- AUC (Pt917, LRMM): 75.009
- AUC (Pt920, LRMM): 39.820
- AUC (Pt923, LRMM): 54.728 and 54.73
- AUC (Pt932, LRMM): 43.433
- AUC (Pt933, LRMM): 54.495 and 54.49
- AUC (Pt935, NDMM): 46.326 and 46.33
- AUC (Pt936, LRMM): 50.956
- AUC (Pt937, NDMM): 51.703 and 49.814
- AUC (Pt940, LRMM): 63.001
- AUC (Pt945, LRMM): 53.027
- AUC (Pt948, LRMM): 57.94
- AUC (Pt951, ERMM): 62.878 and 62.88
- AUC (Pt956, NDMM): 68.610 and 64.376
- AUC (Pt957, LRMM): 82.913
- AUC (Pt961, NDMM): 64.332 and 67.807

SMILES: CC(C)C[C@H](NC(=O)[C@H](Cc1ccccc1)NC(=O)c1cnccn1)B(O)O [BTZ, bortezomib]
- AUC (Pt648, LRMM): 48.724
- AUC (Pt652, LRMM): 65.980
- AUC (Pt655, LRMM): 29.968
- AUC (Pt663, LRMM): 45.417
- AUC (Pt665, LRMM): 47.552
- AUC (Pt666, LRMM): 37.470
- AUC (Pt669, ERMM): 37.041
- AUC (Pt672, NDMM): 45.751
- AUC (Pt677, NDMM): 30.916 and 33.959
- AUC (Pt680, ERMM): 39.728 and 39.652
- AUC (Pt685, ERMM): 34.249
- AUC (Pt689, NDMM): 40.257
- AUC (Pt691, LRMM): 38.965
- AUC (Pt693, SMOL): 87.905
- AUC (Pt694, NDMM): 31.313
- AUC (Pt695, LRMM): 46.540
- AUC (Pt697, NDMM): 44.112
- AUC (Pt700, NDMM): 42.763 and 44.093
- AUC (Pt707, LRMM): 60.814
- AUC (Pt737, MGUS): 35.864
- AUC (Pt738, NDMM): 46.001
- AUC (Pt740, SMOL): 32.547
- AUC (Pt745, NDMM): 47.650
- AUC (Pt852, NDMM): 23.262
- AUC (Pt853, ERMM): 63.604 and 64.834
- AUC (Pt856, NDMM): 36.749
- AUC (Pt866, NDMM): 36.635
- AUC (Pt875, NDMM): 45.303
- AUC (Pt888, LRMM): 100.000
- AUC (Pt893, LRMM): 100.000
- AUC (Pt899, SMOL): 59.818
- AUC (Pt906, NDMM): 59.784
- AUC (Pt909, LRMM): 29.196
- AUC (Pt912, PCL): 26.800
- AUC (Pt917, LRMM): 78.984
- AUC (Pt920, LRMM): 42.040
- AUC (Pt923, LRMM): 45.019
- AUC (Pt932, LRMM): 28.145
- AUC (Pt933, LRMM): 39.573
- AUC (Pt935, NDMM): 31.629
- AUC (Pt936, LRMM): 45.292
- AUC (Pt937, NDMM): 46.111 and 46.768
- AUC (Pt940, LRMM): 43.043
- AUC (Pt956, NDMM): 64.107 and 61.177
- AUC (Pt957, LRMM): 82.570
- AUC (Pt961, NDMM): 70.805 and 67.849
